Source: US11998602B2, “Methods for promoting myelination and for treating demyelinating diseases” (The Scripps Research Institute, priority 2018, dated 2024)

Test system: Rat primary optic nerve OPCs
Assay: High content imaging assay of OPC differentiation (MBP, A2B5, DAPI cell counts)
Assay type: cell-based
Experimental: Rat primary optic nerve OPCs were isolated by panning (>99% A2B5^+) and cultured in poly-D-lysine (10 μg/ml)-coated TC dishes in OPC culture media (Neurobasal Media, Invitrogen) supplemented with B27-without vitamin A (Invitrogen), 1× non-essential amino acids, 1× Glutamax, 1× anti-anti, β-mercaptoethanol and PDGF-AA (50 ng/ml; Peprotech) at 37° C. with 5% CO2. The culture medium was replaced every 48 h and cells were collected before the confluency reached 60% to maintain a naive state. For differentiation, OPCs were plated at 1 million cells in one 10 cm petri-dish filled with differentiation media, which is identical to the culture media, but with PDGF-AA at 2 ng/ml. T3 and DMSO were used as the positive control and negative control, respectively. Five replicates of cells were collected at different times (0, 3, and 6 days) for metabolomics studies. High content imaging. For dose-response co-treatment experiments, black, clear-bottom 384-well plates (Greiner) were coated with poly-D-lysine (10 μg ml^−1 in PBS). miconazole and benztropine were added at 8 doses in differentiation media; 3-fold dilutions down from 10 μM. taurine was then added at 8 concentrations; 3-fold dilutions down from 20 mM. This 384-well format was also utilized for experiments combining benztropine (0.5 μM), miconazole (2 μM) or T3 (1 μM) with propargylglycine (0.1, 3, 10, 30 μM), reduced glutathione (1, 10, 30, 100 μM) or ascorbic acid ([…]). OPCs were then seeded at a density of 1,000 cells per well, and the plates were incubated at 37° C. with 5% CO2 for 6 days. For time course experiments, cells were seeded at a density of 5,000 cells per well in poly-D-lysine-coated 96-well plates. Cells were treated with DMSO (0.1%), benztropine (0.5 μM), miconazole (2 μM) or T3 (1 μM) on day 0, and taurine (20 mM) was added in combination at 0, 1 or 3 days post-drug treatment. The plates were incubated at 37° C. with 5% CO2 for 6 days. On day 6, cells were then fixed for 20 min with 4% formaldehyde solution and stained with mouse anti-Myelin Basic Protein (MBP) antibody (MAB382, Millipore) or anti-A2B5 antibody (MAB312, Millipore) in 3% BSA, 0.3% Triton X-100 with overnight incubation at 4° C. The cells were washed and incubated with secondary antibody (goat anti-mouse Alexa Fluor488) and DAPI (Invitrogen) for 1 h at room temperature. The cells were washed and plates were sealed and imaged using an Opera confocal imaging reader (Perkin Elmer) or a Cellomics Cell Insight imaging reader (Thermo). An air ×10 lens was used to capture 9 images per well at both wavelengths (488 and 365 nm), with each image representing a different unique locations field in a single well. For image analysis, DAPI-stained nuclei and MBP-positive or A2B5-positive cell bodies were detected using an algorithm that selects for positive cell bodies and nuclei within a range of fluorescent emission values and sizes as determined by fitting parameters to positive (T3, 1 μM) and negative controls (DMSO, 0.1%). The numbers of DAPI-positive objects were enumerated in experiments where cell counts were required. Numerical results from the analyzed images were later exported for analysis using Excel (Microsoft) and/or Genedata software.

## NCCS(=O)(=O)O [taurine, 2-aminoethanesulfonic acid]
>2 mM taurine with miconazole or benztropine, 6 days
  Enhancement of overall cell number compared to drug treatment alone: over 20%
Dosing initiated at days 0 to 5, evaluated at day 6
  Days of taurine addition with the most significant impact on MBP expression: between days 1 and 3
Evaluated at day 6
  Impact on MBP expression of taurine addition on day 0 compared with days 1 to 3: significantly less efficacious
Taurine added on day 0, 1 or 3 to basal or drug-induced conditions, read at day 3 or day 6
  Impact on number of residual immature A2B5+ OPCs: minimal, albeit statistically significant, impact
